The subject of data set [1] is LPS induced TNF-α release from human monocytes. In words: LPS induced TNF-α release from human monocytes. In kind it is cell-based. Conditions: Monocyte.
For data set [2], the system named is histamine induced bronchospasm. In words: Histamine induced bronchospasm in guinea-pigs after dry powder exposure. In kind it is in vivo, guinea-pig. Conditions: dry powder 2.5 and 25% in lactose, over a 5.5 hour period. On the procedure: 1. The compound of Example 1, 9,10-Dimethoxy-2-(2,4,6-trimethylphenylimino)-3-(N-carbamoyl-2-aminoethyl)-3,4,6,7-tetrahydro-2H-pyrimido[6,1-a]isoquinolin-4-one, was tested in a model of histamine induced bronchospasm. Conscious guinea-pigs were exposed to dry powder (micronised) compound. The drug was blended with lactose so that the final concentration was 0.25, 2.5 and 25%. At various times after exposure to drug the animals were anaesthetised and challenged with varying doses of histamine. Total airway resistance and mean arterial blood pressure were recorded.

The test system of data set [3] is recruitment of eosinophils to the lungs. In words: Antigen induced eosinophilia in the ovalbumin sensitised guinea-pig. In kind it is in vivo. On the procedure:
3. […] Further experiments were carried out to characterise the duration of action in this model.

Data set [4] relates to guinea-pig isolated trachea. In words: Electrical-induced contraction of guinea-pig isolated trachea (superfused tracheal rings, electrical field stimulation). The note with it: 10 μM. On the procedure:
Superfusion of guinea-pig tracheal rings was performed according to a previously described method (Coleman et al. 1996; Pulmonary Pharmacology, 9, 107–117). Briefly, guinea-pig tracheal preparations were cut into rings then opened by sectioning the ring opposite the smooth muscle and suspended between two platinum electrodes under 1 g tension. The tissues were superfased at a rate of 3.25 ml/min with Krebs-Henseleit solution at 37° C. containing the cyclooxygenase inhibitor, indomethacin (5 μM) and bubbled with 95% O2 and 5% CO2. Tracheal preparations were allowed to equilibrate for 40 min before commencement of electrical stimulation delivered as a 10 s train of square wave pulses at 3 Hz, 0.1 ms duration and 20V (approx. 400 mAmps) generated every 100 sec by means of physiological square wave-stimulator.
The compound of Example 1 was dissolved in DMSO containing Tween 80 (10%) and distilled water (0.01 M), which were then added to the organ bath to give a final concentration of 10 μM. The other compounds were prepared in DMSO and diluted in Krebs-Henseleit solution which yielded a final superfusion concentration of 0.05% DMSO, and superfused at a rate of 0.3 ml/min; contractile responses to electrical field stimulation was recorded on a Macintosh computer using MacLab software.

The test system of data set [5] is human mononuclear cells stimulated by PHA. In words: Proliferation of human mononuclear cells stimulated by PHA ([3H]-thymidine). Format: cell-based. The protocol: Normal healthy volunteers underwent phlebotomy and 25 ml of blood was collected. Mononuclear cells were separated and purified according to the method of Banner et al (Banner et al Br. J. Pharmacol. 116 3169–3174 (1995)). Human peripheral mononuclear cells (100,000 per well) were stimulated for 24 h with phytohaemagglutinin (PHA, 2 μ/ml) in the absence or presence of the compound of Example 1 (0.001–100 μM) at 37° C. in a 95% air, 5% CO2 atmosphere. Twenty four hours later, [3H]-thymidine (0.1 μCi) was added to each well and the cells were incubated for a further 24 h period. Cells were then harvested onto glass fibre filters using a cell harvester (ICN Flow, Buckinghamshire) and counted in a scintillation counter.

Data set [6] deals with PDE4 (human neutrophil). Kind of data set: Inhibition of phosphodiesterase (PDE) type 4 isoenzyme. Format: biochemical.
The target in data set [7] is T1, PDE3 (human platelet) (Homo sapiens, UniProt Q14432).
T1 construct: (human platelet); from tissue; host or cells: human platelets
Kind of data set: Inhibition of phosphodiesterase (PDE) type 3 isoenzyme. Format: biochemical.

Data set [8] is described as follows: Intravenous administration to urethane anaesthetised guinea-pigs, mean arterial blood pressure. Format: in vivo, guinea-pig. The note with it: intravenous 1 to 100 μg/kg, evidence that the compound had come out of solution. The protocol: 2. […] The compound was dissolved in DMSO then diluted with saline (there was evidence that the compound had come out of solution).

Here are results for eight molecules from US7105663B2, “Derivatives of pyrimido[6,1-a]isoquinolin-4-one” (Rhinopharma Limited, priority 1999, dated 2006).

pIC50: −log10 of the molar value.

T1 sequence (Q14432 whole entry): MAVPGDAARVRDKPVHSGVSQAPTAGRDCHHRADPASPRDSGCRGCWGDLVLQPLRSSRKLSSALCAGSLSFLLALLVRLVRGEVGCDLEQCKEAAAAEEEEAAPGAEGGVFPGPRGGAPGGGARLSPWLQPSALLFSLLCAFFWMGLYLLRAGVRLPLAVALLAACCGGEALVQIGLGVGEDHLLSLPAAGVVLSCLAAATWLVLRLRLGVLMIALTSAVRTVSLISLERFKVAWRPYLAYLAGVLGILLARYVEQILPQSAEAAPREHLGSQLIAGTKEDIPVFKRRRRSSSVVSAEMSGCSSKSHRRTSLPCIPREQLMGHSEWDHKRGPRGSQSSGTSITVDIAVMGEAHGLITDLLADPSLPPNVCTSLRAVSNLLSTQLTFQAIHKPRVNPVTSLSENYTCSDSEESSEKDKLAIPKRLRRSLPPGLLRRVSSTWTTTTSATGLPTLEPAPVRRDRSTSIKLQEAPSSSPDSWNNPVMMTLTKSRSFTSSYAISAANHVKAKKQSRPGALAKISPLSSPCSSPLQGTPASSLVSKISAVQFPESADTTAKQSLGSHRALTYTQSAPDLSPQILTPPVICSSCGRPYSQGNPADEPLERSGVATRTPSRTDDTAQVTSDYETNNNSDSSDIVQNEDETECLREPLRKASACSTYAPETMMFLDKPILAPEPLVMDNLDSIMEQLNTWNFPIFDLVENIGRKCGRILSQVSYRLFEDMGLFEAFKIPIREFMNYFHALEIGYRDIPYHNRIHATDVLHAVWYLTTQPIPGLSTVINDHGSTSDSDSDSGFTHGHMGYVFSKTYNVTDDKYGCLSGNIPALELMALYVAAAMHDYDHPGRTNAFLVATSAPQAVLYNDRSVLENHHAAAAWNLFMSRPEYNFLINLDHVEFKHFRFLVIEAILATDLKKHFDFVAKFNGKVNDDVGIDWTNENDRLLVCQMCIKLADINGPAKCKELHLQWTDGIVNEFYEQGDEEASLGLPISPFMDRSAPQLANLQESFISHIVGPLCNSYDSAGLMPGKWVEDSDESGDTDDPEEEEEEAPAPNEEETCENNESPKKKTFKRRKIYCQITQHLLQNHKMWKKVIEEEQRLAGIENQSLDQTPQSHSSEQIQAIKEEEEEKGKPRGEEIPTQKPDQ

In data set [1] (n = 6), `COc1ccc([C@H](Cc2ccncc2)c2ccccc2)cc1OC1CCCC1` [CDP 840] had a pIC50 of 7.04.
As to `COc1cc2c(cc1OC)-c1c/c(=N\c3c(C)cc(C)cc3C)n(CCNC(N)=O)c(=O)n1CC2` [Example 1, 9,10-Dimethoxy-2-(2,4,6-trimethylphenylimino)3-(N-carbamoyl-2-aminoethyl)-3,4,6,7-tetrahydro-2H-pyrimido[6,1-a]isoquinolin-4-one], in data set [2] (conscious guinea-pigs), the “protection against histamine induced bronchospasm” value is on record as “significant protection”. Further, the mean blood pressure result in data set [2] (guinea-pigs) was “reduced mean blood pressure”. Further, the “recruitment of eosinophils to the lungs following antigen challenge” value in data set [3] (10 mg/kg orally 1 hour prior to antigen challenge) is given as “significantly inhibited”; in data set [3] (dry powder (25%) 1.5 hours prior to antigen challenge, measured 24 hours after challenge) it was “significantly inhibited”; in data set [3] (dry powder (25%) 5.5 hours before antigen challenge), “failed to significantly inhibit”. For the same molecule, in data set [4], the “effect on contractile responses (electrical-induced contraction of guinea-pig isolated trachea)” value (“effect on contractile responses” below) is reported as “inhibit the contractile responses with a long duration of action”. Further, in data set [5] (0.001–100 μM), the “proliferation of human mononuclear cells stimulated by PHA” value was “significantly inhibited”. The pIC50 in data set [5] (Homo sapiens, 95% confidence limits in brackets, n=6, read-out: IC50 against proliferation of human mononuclear cells stimulated with PHA) was 6.34; in data set [6], 5.83; in data set [1] (n = 6) it was 8.12; in data set [7], 9.37. In addition, in data set [8], the “mean arterial blood pressure” value is recorded as “dose dependant reduction”.
Turning to `COc1cc2c(cc1OC)-c1c/c(=N\c3c(C)cc(C)cc3C)n(CCN/C(N)=N/[N+](=O)[O-])c(=O)n1CC2` [Example 8, 9,10-Dimethoxy-3-[N-(N′-nitro)-2-guanidinoethyl]-2-(2,4,6-trimethylphenylimino)-3,4,6,7-tetrahydro-2H-pyrimido[6,1-a]isoquinolin-4-one], in data set [4], the “effect on contractile responses” value is “inhibit the contractile responses with a long duration of action”.
`COc1cc2c(cc1OC)-c1c/c(=N\c3c(C)cc(C)cc3C)n(CCNC(=O)NC3CCCCC3)c(=O)n1CC2` [Example 9]: the “effect on contractile responses” value in data set [4] was “inhibit the contractile responses with a long duration of action”.
On to `COc1cc2c(cc1OC)-c1c/c(=N\c3ccccc3C)n(CCNC(N)=O)c(=O)n1CC2` [Example 10, 3-(N-Carbamoyl-2-aminoethyl)-9,10-dimethoxy-2-(2-methylphenylimino)-3,4,6,7-tetrahydro-2H-pyrimido[6,1-a]isoquinolin-4-one], for which the “effect on contractile responses” value in data set [4] is “inhibit the contractile responses with a long duration of action”.
Turning to `COc1cc2c(cc1OC)-c1c/c(=N\c3c(C(C)C)cccc3C(C)C)n(CCNC(N)=O)c(=O)n1CC2` [Example 11], the “effect on contractile responses” value in data set [4] was “inhibit the contractile responses with a long duration of action”.
The same measure, in the same setting: for `CN/C(=N\C#N)NCCn1c(=O)n2c(c/c1=N\c1c(C)cc(C)cc1C)-c1cc(OC)c(OC)cc1CC2` [Example 13, 3-[N-(N′-Cyano-N″-methyl)-2-guanidinoethyl]-9,10-dimethoxy-2-(2,4,6-trimethyl-phenylimino)-3,4,6,7-tetrahydro-2H-pyrimido[6,1-a]isoquinolin-4-one] the value was “inhibit the contractile responses with a long duration of action”.
The molecule `CN/C(=N\c1ccc(C2=NNC(=O)CC2C)cc1)NC#N` (stereo not shown) [Siguazodan] showed a pIC50 in data set [1] of under 4.00.
